Data from patent US4195171A, “Derivatives of an antibiotic XK-62-2 and process for the production thereof” (Abbott Laboratories, priority 1975, dated 1980).
Values after ≈ are worked out from the molar mass of the structure shown. Like-named read-outs stand apart in the source and are kept apart here.

Key:
Assay in all cases: Antibacterial spectrum, MIC by agar dilution method
Assay type in all cases: cell-based
[1] = test system: Pseudomonas aeruginosa KY 8510
Text: (§1) XK-62-2, 1-N-[L-(-)-α-hydroxy-γ-aminobutyryl] XK-62-2, Compounds (I-1), (I-2), (II-1) and (II-2) against various Gram-negative and Gram-positive bacteria determined by agar dilution method at pH 7.2.
(§2) ^1 produces kanamycin acetyltransferase

[2] = test system: Escherichia coli KY Z-343; conditions: KYZ343, pH 7.2, strain produces kanamycin acetyltransferase, read-out: Minimum Inhibitory Concentration
Text: as §1, §2

[3] = test system: Pseudomonas aeruginosa KY 8516
Text: as §1, §2

[4] = test system: Serratia marcescens POE 1065
Text: as §1, §2

[5] = test system: Escherichia coli KY Z-338; conditions: KYZ338, pH 7.2, strain produces gentamicin adenyltransferase, read-out: Minimum Inhibitory Concentration
Text: as §1
(§3) ^4 produces gentamicin adenyltransferase

[6] = test system: Klebsiella pneumoniae Y-58; conditions: Y58, pH 7.2, strain produces gentamicin adenyltransferase, read-out: Minimum Inhibitory Concentration
Text: as §1, §3

[7] = test system: Klebsiella pneumoniae Y-60; conditions: Y60, pH 7.2, strain produces gentamicin adenyltransferase, read-out: Minimum Inhibitory Concentration
Text: as §1, §3

[8] = test system: Escherichia coli KY 8348; conditions: KY8348, pH 7.2, strain produces gentamicin acetyltransferase Type I, read-out: Minimum Inhibitory Concentration
Text: as §1
(§4) ^2 produces gentamicin acetyltransferase Type I

[9] = test system: Pseudomonas aeruginosa KY 8511; conditions: KY8511, pH 7.2, strain produces gentamicin acetyltransferase Type I, read-out: Minimum Inhibitory Concentration
Text: as §1, §4

[10] = test system: Pseudomonas aeruginosa Z-445; conditions: Z445, pH 7.2, strain produces 6N-acetyltransferase Type III, read-out: Minimum Inhibitory Concentration
Text: as §1
(§5) ^8 produces 6N-acetyltransferase Type III

[11] = test system: Pseudomonas aeruginosa KY Z-444; conditions: KYZ444, agar dilution, pH 7.2, strain produces 6N-acetyltransferase Type III, read-out: Minimum Inhibitory Concentration
Text: as §1, §5

[12] = test system: Salmonella enteritidis G-14; conditions: Salmonella enterica, pH 7.2, read-out: Minimum Inhibitory Concentration
Text: as §1

[13] = test system: Pseudomonas aeruginosa BMH 10; conditions: BMH10, pH 7.2, read-out: Minimum Inhibitory Concentration
Text: as §1

[14] = test system: Escherichia coli Juhl; conditions: agar dilution, pH 7.2, read-out: Minimum Inhibitory Concentration
Text: as §1

[15] = test system: bacillus subtilis ATCC 6633; conditions: ATCC6633, pH 7.2, read-out: Minimum Inhibitory Concentration
Text: as §1

[16] = test system: Staphylococcus aureus Smith; conditions: pH 7.2, read-out: Minimum Inhibitory Concentration
Text: as §1

[17] = test system: Pseudomonas aeruginosa NC-5
Text: as §1

[18] = test system: Shigella sonnei ATCC 9290; conditions: ATCC9290, pH 7.2, read-out: Minimum Inhibitory Concentration
Text: as §1

[19] = test system: Escherichia coli T-5; conditions: T5, agar dilution, pH 7.2, read-out: Minimum Inhibitory Concentration
Text: as §1

[20] = test system: Proteus vulgaris 6897; conditions: pH 7.2, read-out: Minimum Inhibitory Concentration
Text: as §1

[21] = test system: Serratia sp T-55; conditions: T55, agar dilution, pH 7.2, read-out: Minimum Inhibitory Concentration
Text: as §1

[22] = test system: Sarcina lutea ATCC 9341; conditions: Micrococcus luteus, ATCC9341, pH 7.2, read-out: Minimum Inhibitory Concentration
Text: as §1

[23] = test system: Proteus morganii KY 4298; conditions: Morganella morganii, KY4298; agar dilution, pH 7.2; read-out: Minimum Inhibitory Concentration
Text: as §1

[24] = test system: Staphylococcus aureus 209 P; conditions: pH 7.2, read-out: Minimum Inhibitory Concentration
Text: as §1

[25] = test system: Klebsiella pneumoniae No. 8045; conditions: pH 7.2, read-out: Minimum Inhibitory Concentration
Text: as §1

[26] = test system: Proteus rettgeri KY 4288; conditions: Providencia rettgeri, KY4288, pH 7.2, read-out: Minimum Inhibitory Concentration
Text: as §1

[27] = test system: Proteus mirabilis 1287; conditions: pH 7.2, read-out: Minimum Inhibitory Concentration
Text: as §1

[28] = test system: Salmonella typhimurium E-9; conditions: Salmonella enterica, pH 7.2, read-out: Minimum Inhibitory Concentration
Text: as §1

[29] = test system: Escherichia coli T-2; conditions: T2, pH 7.2, read-out: Minimum Inhibitory Concentration
Text: as §1

[30] = test system: Streptococcus faecalis ATCC 10541; conditions: Enterococcus faecalis, ATCC10541, pH 7.2, read-out: Minimum Inhibitory Concentration
Text: as §1

[31] = test system: Pseudomonas aeruginosa No. 12; conditions: pH 7.2, read-out: Minimum Inhibitory Concentration
Text: as §1

[32] = test system: Pseudomonas aeruginosa E-2
Text: as §1

[33] = test system: Pseudomonas aeruginosa BMH 1; conditions: BMH1, pH 7.2, read-out: Minimum Inhibitory Concentration
Text: as §1

[34] = KY8510, agar dilution, pH 7.2, strain produces kanamycin acetyltransferase, read-out: Minimum Inhibitory Concentration
[35] = KY8516, agar dilution, pH 7.2, strain produces kanamycin acetyltransferase, read-out: Minimum Inhibitory Concentration
[36] = POE1065, agar dilution, pH 7.2, strain produces kanamycin acetyltransferase, read-out: Minimum Inhibitory Concentration
[37] = NC5, agar dilution, pH 7.2, read-out: Minimum Inhibitory Concentration
[38] = E2, agar dilution, pH 7.2, read-out: Minimum Inhibitory Concentration

Compound `CNCC1CCC(N)C(OC2C(N)CC(NC(=O)C(O)CN)C(OC3OCC(C)(O)C(NC)C3O)C2O)O1` (racemic) [1-N-(DL-α-hydroxy-β-aminopropionyl) XK-62-2, reference compound] has an MIC [1, 34] of 3.12 µg/mL (≈ 5.67 µM), an MIC [2] of 0.2 µg/mL (≈ 0.363 µM) and an MIC [3, 35] of 3.12 µg/mL (≈ 5.67 µM). For the same compound, the MIC [4, 36] was 0.78 µg/mL (≈ 1.42 µM), the MIC [5] was 0.2 µg/mL (≈ 0.363 µM) and the MIC [6] was 0.4 µg/mL (≈ 0.726 µM). For the same compound, the MIC [7] was 0.4 µg/mL (≈ 0.726 µM), the MIC [8] was 0.2 µg/mL (≈ 0.363 µM) and the MIC [9] was 1.56 µg/mL (≈ 2.83 µM). For the same compound, the MIC [10] was 3.12 µg/mL (≈ 5.67 µM), the MIC [11] was 1.56 µg/mL (≈ 2.83 µM) and the MIC ([12]; agar dilution) was 6.25 µg/mL (≈ 11.4 µM). The MIC [13] was 0.4 µg/mL (≈ 0.726 µM), the MIC [14] was 0.78 µg/mL (≈ 1.42 µM) and the MIC [15] was 0.2 µg/mL (≈ 0.363 µM). The MIC [16] was 0.2 µg/mL (≈ 0.363 µM), the MIC [17, 37] was 3.12 µg/mL (≈ 5.67 µM) and the MIC [18] was 0.78 µg/mL (≈ 1.42 µM). For the same compound, the MIC [19] was 0.78 µg/mL (≈ 1.42 µM), the MIC [20] was 12.5 µg/mL (≈ 22.7 µM) and the MIC [21] was 1.56 µg/mL (≈ 2.83 µM). The MIC [22] was 0.4 µg/mL (≈ 0.726 µM), the MIC [23] was 0.78 µg/mL (≈ 1.42 µM) and the MIC [24] was 0.4 µg/mL (≈ 0.726 µM). It also gave an MIC [25] of 0.78 µg/mL (≈ 1.42 µM), an MIC [26] of 1.56 µg/mL (≈ 2.83 µM) and an MIC [27] of 12.5 µg/mL (≈ 22.7 µM). The MIC [28] was 0.4 µg/mL (≈ 0.726 µM), the MIC [29] was 0.4 µg/mL (≈ 0.726 µM) and the MIC [30] was 12.5 µg/mL (≈ 22.7 µM). It also gave an MIC [31] of 0.78 µg/mL (≈ 1.42 µM), an MIC [32, 38] of 3.12 µg/mL (≈ 5.67 µM) and an MIC [33] of 1.56 µg/mL (≈ 2.83 µM).
`CNCC1CCC(N)C(OC2C(N)CC(NC(=O)C(O)CCN)C(OC3OCC(C)(O)C(N)C3O)C2O)O1` (single isomer, unassigned) [II-2, 3"-N-demethyl-1-N-[L-(-)-α-hydroxy-γ-aminobutyryl] XK-62-2] was tested, and the MIC ([1]; KY8510, pH 7.2, read-out: Minimum Inhibitory Concentration) was 3.12 µg/mL (≈ 5.67 µM), the MIC [2] was 0.2 µg/mL (≈ 0.363 µM) and the MIC ([3]; KY8516, pH 7.2, read-out: Minimum Inhibitory Concentration) was 3.12 µg/mL (≈ 5.67 µM). For the same compound, the MIC ([4]; POE1065, pH 7.2, read-out: Minimum Inhibitory Concentration) was 3.12 µg/mL (≈ 5.67 µM), the MIC [5] was 0.4 µg/mL (≈ 0.726 µM) and the MIC [6] was 0.4 µg/mL (≈ 0.726 µM). The MIC [7] was 0.78 µg/mL (≈ 1.42 µM), the MIC [8] was 0.4 µg/mL (≈ 0.726 µM) and the MIC [9] was 1.56 µg/mL (≈ 2.83 µM). It also gave an MIC [10] of 6.25 µg/mL (≈ 11.4 µM), an MIC [11] of 1.56 µg/mL (≈ 2.83 µM) and an MIC [12] of 3.12 µg/mL (≈ 5.67 µM). The MIC [13] was 0.4 µg/mL (≈ 0.726 µM), the MIC [14] was 1.56 µg/mL (≈ 2.83 µM) and the MIC [15] was 0.2 µg/mL (≈ 0.363 µM). It also gave an MIC [16] of 0.4 µg/mL (≈ 0.726 µM), an MIC ([17]; NC5, pH 7.2, read-out: Minimum Inhibitory Concentration) of 3.12 µg/mL (≈ 5.67 µM) and an MIC [18] of 3.12 µg/mL (≈ 5.67 µM). For the same compound, the MIC [19] was 0.4 µg/mL (≈ 0.726 µM), the MIC [20] was 6.25 µg/mL (≈ 11.4 µM) and the MIC [21] was 1.56 µg/mL (≈ 2.83 µM). It also gave an MIC [22] of 1.56 µg/mL (≈ 2.83 µM), an MIC [23] of 1.56 µg/mL (≈ 2.83 µM) and an MIC [24] of 0.4 µg/mL (≈ 0.726 µM). For the same compound, the MIC [25] was 0.78 µg/mL (≈ 1.42 µM), the MIC [26] was 0.78 µg/mL (≈ 1.42 µM) and the MIC [27] was 12.5 µg/mL (≈ 22.7 µM). For the same compound, the MIC [28] was 0.78 µg/mL (≈ 1.42 µM), the MIC [29] was 0.78 µg/mL (≈ 1.42 µM) and the MIC [30] was 25 µg/mL (≈ 45.4 µM). For the same compound, the MIC [31] was 0.78 µg/mL (≈ 1.42 µM), the MIC ([32]; E2, pH 7.2, read-out: Minimum Inhibitory Concentration) was 3.12 µg/mL (≈ 5.67 µM) and the MIC [33] was 1.56 µg/mL (≈ 2.83 µM).
`CNCC1CCC(N)C(OC2C(N)CC(NC(=O)C(O)CCN)C(OC3OCC(C)(O)C(NC)C3O)C2O)O1` (single isomer, unassigned) [1-N-[L-(-)-α-hydroxy-γ-aminobutyryl] XK-62-2, reference compound] showed an MIC [1, 34] of 3.12 µg/mL (≈ 5.53 µM), an MIC [2] of 0.1 µg/mL (≈ 0.177 µM) and an MIC [3, 35] of 3.12 µg/mL (≈ 5.53 µM). For the same compound, the MIC [4, 36] was 0.78 µg/mL (≈ 1.38 µM), the MIC [5] was 0.2 µg/mL (≈ 0.354 µM) and the MIC [6] was 0.2 µg/mL (≈ 0.354 µM). For the same compound, the MIC [7] was 0.2 µg/mL (≈ 0.354 µM), the MIC [8] was 0.1 µg/mL (≈ 0.177 µM) and the MIC [9] was 1.56 µg/mL (≈ 2.76 µM). The MIC [10] was 6.25 µg/mL (≈ 11.1 µM), the MIC [11] was 1.56 µg/mL (≈ 2.76 µM) and the MIC ([12]; agar dilution) was 3.12 µg/mL (≈ 5.53 µM). It also gave an MIC [13] of 0.4 µg/mL (≈ 0.708 µM), an MIC [14] of 0.4 µg/mL (≈ 0.708 µM) and an MIC [15] of 0.1 µg/mL (≈ 0.177 µM). It also gave an MIC [16] of 0.1 µg/mL (≈ 0.177 µM), an MIC [17, 37] of 3.12 µg/mL (≈ 5.53 µM) and an MIC [18] of 0.78 µg/mL (≈ 1.38 µM). For the same compound, the MIC [19] was 0.4 µg/mL (≈ 0.708 µM), the MIC [20] was 1.56 µg/mL (≈ 2.76 µM) and the MIC [21] was 0.78 µg/mL (≈ 1.38 µM). For the same compound, the MIC [22] was 0.2 µg/mL (≈ 0.354 µM), the MIC [23] was 0.78 µg/mL (≈ 1.38 µM) and the MIC [24] was 0.4 µg/mL (≈ 0.708 µM). For the same compound, the MIC [25] was 0.2 µg/mL (≈ 0.354 µM), the MIC [26] was 0.78 µg/mL (≈ 1.38 µM) and the MIC [27] was 12.5 µg/mL (≈ 22.1 µM). It also gave an MIC [28] of 0.2 µg/mL (≈ 0.354 µM), an MIC [29] of 0.4 µg/mL (≈ 0.708 µM) and an MIC [30] of 6.25 µg/mL (≈ 11.1 µM). The MIC [31] was 0.4 µg/mL (≈ 0.708 µM), the MIC [32, 38] was 3.12 µg/mL (≈ 5.53 µM) and the MIC [33] was 0.78 µg/mL (≈ 1.38 µM).
